Data taken from article PMC6364417, “Kinase inhibitor library screening identifies synergistic drug combinations effective in sensitive and resistant melanoma cells” (Journal of Experimental & Clinical Cancer Research : CR, 2019).

Tests used:
Experiment in all cases: Kinase inhibitor library screening, PrestoBlue cell viability, 1 or 10 μM, 72 h
[1] = system: 501Mel-GP cells (Dabrafenib-resistant); details: 501Mel GP
A375 cells (parental) = details: A375 Parental
[2] = system: IGR37-GP cells (Dabrafenib-resistant); details: IGR37 GP
[3] = system: IGR37-XP cells (Vemurafenib-resistant); details: IGR37 XP
[4] = system: 501Mel-XP cells (Vemurafenib-resistant); details: 501Mel XP
501Mel cells (parental) = details: 501Mel Parental
How it was run: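 Readout: PrestoBlue signal on a monochromator plate reader, given as percent viability relative to untreated controls. Parental and drug-resistant (Vemurafenib XP, Dabrafenib GP) sublines were tested; at least duplicates per line.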

IGR37 cells (parental) = details: IGR37 Parental
[5] = system: A375-GP cells (Dabrafenib-resistant); details: A375 GP; for cell viability (kinase inhibitor library screening) / Cell viability in kinase inhibitor library screening, A375 GP, 10μΜ: 10μΜ
[6] = system: A375-XP cells (Vemurafenib-resistant); details: A375 XP

SMILES	Cell viability in kinase inhibitor library screening, 501Mel GP, 1μΜ ([1]; 1μΜ, 72 h, in %)	Cell viability in kinase inhibitor library screening, 501Mel GP, 10μΜ ([1]; 10μΜ, 72 h, in %)	Cell viability in kinase inhibitor library screening, A375 Parental, 10μΜ (A375 cells (parental); 10μΜ, 72 h)	Cell viability in kinase inhibitor library screening, A375 Parental, 1μΜ (A375 cells (parental); 1μΜ, 72 h)	Cell viability in kinase inhibitor library screening, IGR37 GP, 10μΜ ([2]; 10μΜ, 72 h) [%]	Cell viability in kinase inhibitor library screening, IGR37 GP, 1μΜ ([2]; 1μΜ, 72 h, in %)	Cell viability in kinase inhibitor library screening, IGR37 XP, 10μΜ ([3]; 10μΜ, 72 h) [%]	Cell viability in kinase inhibitor library screening, IGR37 XP, 1μΜ ([3]; 1μΜ, 72 h, in %)	Cell viability in kinase inhibitor library screening, 501Mel XP, 1μΜ ([4]; 1μΜ, 72 h, in %)	Cell viability in kinase inhibitor library screening, 501Mel XP, 10μΜ ([4]; 10μΜ, 72 h, in %)	Cell viability in kinase inhibitor library screening, 501Mel Parental, 1μΜ (501Mel cells (parental); 1μΜ, 72 h, in %)	Cell viability in kinase inhibitor library screening, 501Mel Parental, 10μΜ (501Mel cells (parental); 10μΜ, 72 h, in %)	Cell viability in kinase inhibitor library screening, IGR37 Parental, 1μΜ (IGR37 cells (parental); 1μΜ, 72 h, in %)	Cell viability in kinase inhibitor library screening, IGR37 Parental, 10μΜ (IGR37 cells (parental); 10μΜ, 72 h, in %)	Cell viability in kinase inhibitor library screening, A375 GP, 1μΜ ([5]; 72 h)	Cell viability in kinase inhibitor library screening, A375 GP, 10μΜ ([5]; 72 h)	Cell viability in kinase inhibitor library screening, A375 XP, 10μΜ ([6]; 10μΜ, 72 h)	other results
Nc1nccc(Oc2ccc(NC(=O)c3c[nH]cc(-c4ccc(F)cc4)c3=O)cc2F)c1Cl [BMS 794833]																		cell viability (kinase inhibitor library screening) ([1]; 1μΜ, 72 h): 90.0%; cell viability (kinase inhibitor library screening) ([1]; 10μΜ, 72 h): 70.5%; cell viability (kinase inhibitor library screening) (A375 cells (parental); 10μΜ, 72 h): 63.8%; cell viability (kinase inhibitor library screening) ([2]; 1μΜ, 72 h): 94.1%; cell viability (kinase inhibitor library screening) ([2]; 10μΜ, 72 h): 90.1%; cell viability (kinase inhibitor library screening) ([3]; 1μΜ, 72 h): 103.7%; cell viability (kinase inhibitor library screening) ([3]; 10μΜ, 72 h): 63.5%; cell viability (kinase inhibitor library screening) ([4]; 1μΜ, 72 h): 91.8%; cell viability (kinase inhibitor library screening) ([4]; 10μΜ, 72 h): 52.9%; cell viability (kinase inhibitor library screening) (501Mel cells (parental); 1μΜ, 72 h): 95.9%; cell viability (kinase inhibitor library screening) (501Mel cells (parental); 10μΜ, 72 h): 83.2%; cell viability (kinase inhibitor library screening) (IGR37 cells (parental); 1μΜ, 72 h): 106.3%; cell viability (kinase inhibitor library screening) (IGR37 cells (parental); 10μΜ, 72 h): 97.3%; cell viability (kinase inhibitor library screening) ([5]; 72 h): 85.8%; cell viability (kinase inhibitor library screening) ([6]; 1μΜ, 72 h): 104.8%; cell viability (kinase inhibitor library screening) ([6]; 10μΜ, 72 h): 96.9%
CCN(CC)CCNC(=O)c1c(C)[nH]c(/C=C2\C(=O)Nc3ccc(F)cc32)c1C.O=C(O)C[C@H](O)C(=O)O [Sunitinib Malate (Sutent)]																		cell viability (kinase inhibitor library screening) ([1]; 10μΜ, in %): 1.4; cell viability (kinase inhibitor library screening) (A375 cells (parental); 1μΜ, in %): 104.0; cell viability (kinase inhibitor library screening) (A375 cells (parental); 10μΜ, in %): 67.2; cell viability (kinase inhibitor library screening) ([2]; 1μΜ, in %): 87.4; cell viability (kinase inhibitor library screening) ([2]; 10μΜ, in %): 7.9; cell viability (kinase inhibitor library screening) ([3]; 1μΜ, in %): 100.5; cell viability (kinase inhibitor library screening) ([3]; 10μΜ, in %): 1.2; cell viability (kinase inhibitor library screening) ([4]; 1μΜ, in %): 92.7; cell viability (kinase inhibitor library screening) ([4]; 10μΜ, in %): -0.452; cell viability (kinase inhibitor library screening) (501Mel cells (parental); 1μΜ, in %): 99.9; cell viability (kinase inhibitor library screening) (501Mel cells (parental); 10μΜ, in %): 0.237; cell viability (kinase inhibitor library screening) (IGR37 cells (parental); 1μΜ, in %): 97.5; cell viability (kinase inhibitor library screening) (IGR37 cells (parental); 10μΜ, in %): 68.0; cell viability (kinase inhibitor library screening) ([5]; in %): 72.3; cell viability (kinase inhibitor library screening) ([6]; 10μΜ, in %): 68.1
Oc1ccc(-c2nc(-c3ccncc3)c(-c3ccc(F)cc3)[nH]2)cc1 [SB 202190]	108.3	90.0	64.6	114.0	85.3	104.9	56.3	103.1	98.4	74.6	105.7	89.1	118.8	83.2	105.4	98.4	98.7	
CCCS(=O)(=O)Nc1ccc(F)c(C(=O)c2c[nH]c3ncc(Cl)cc23)c1F [PLX-4720]	104.7	77.9	14.6	32.1	79	97.0	52.5	99.4	96.2	64.4	63.2	55.8	44.1	31.4	83.9	78.1	79.1	Cell viability in kinase inhibitor library screening, A375 XP, 1μΜ ([6]; 1μΜ, 72 h): 102.9
